What was measured:
[1] = test system: RAW264.7 macrophages; test: MTT reduction of RAW264.7 macrophages treated with Cu-CPT22; assay type: cell-based, murine; conditions: MTT reduction at 72 hours post-LPS/VCAN
[2] = test system: NF-κB; test: NF-κB reporter bioluminescence of NGL RAW264.7 macrophages pre-treated with Cu-CPT22 and exposed to VCAN; assay type: cell-based, murine; conditions: 1 nM recombinant VCAN, bioluminescence at 24 hours
[3] = test system: Kras-mutant cancer cells; test: malignant pleural effusion model of κB.luc mice with pleural LLC cells treated with Cu-CPT22; assay type: in vivo; conditions: daily intraperitoneal 20 mg/kg, 14 days post-pleural LLC cells
[4] = 133 mg/h for 72 hours; cited from earlier work
[5] = test system: KrasMUT tumors; test: subcutaneous tumor growth in mice with established tumors treated with Isunakinra; assay type: in vivo; conditions: daily intraperitoneal 20 or 50 mg/Kg from 10-17 days post tumor cells; FULA1, LLC, MC38 (Kras-mutant) vs B16F10, PANO2 (WT)
Protocol: (§1) FIG. 6. Pharmacologic abolition of non-oncogene addiction of Kras-mutant tumors to IL-1β. […] (A) FVB (n=10) and C57BL/6 (n=45) mice received subcutaneous injections of 5×10^6 FULA1 (FVB mice) or LLC, MC38, B16F10, or PANO2 (C57BL/6 mice) cells that carry G12C, G13R, Q61R, or wild-type (WT) Kras alleles. Mice were allowed 10-17 days for tumor take, and were treated with daily intraperitoneal phosphate buffered saline (PBS) or 20 mg/Kg (LLC cells) or 50 mg/Kg (all other cells) Isunakinra until control tumor volume reached 1 cm3 (PANO2 cells) or 2 cm3 (all other cell lines). Shown are therapy (Tx) start, mouse numbers (n), tumor volume as mean (circles) and SD (bars), two-way ANOVA probability (P) for treatment effects, and average Isunakinra effect at the last time-points (%). ** and ***: P<0.01 and P<0.001, respectively, Bonferroni post-tests. (B-D) C57BL/6 mice (n=48) received intrapleural 2×10^5 LLC cells stably expressing a κB.LUC reporter (NGL), were allowed five days for tumor take, and received daily intraperitoneal PBS or 20 mg/Kg Isunakinra. Mice were sacrificed when morbid (n=17/treatment) or at day 14 post-LLC cells (n=7/treatment), after 1 mg intravenous D-luciferin and bioluminescence imaging. […]

[6] = test system: Kras-mutant cancer cells; test: intrapleural LLC κB.LUC reporter malignant pleural effusion model treated with Isunakinra; assay type: in vivo, mice; conditions: daily intraperitoneal 20 mg/Kg from day 5 post-intrapleural LLC cells
Protocol: as §1

With `CCCCCCOC(=O)c1cc(O)c(=O)c2c(O)c(O)c(OC)cc2c1` [Cu-CPT22, 3,4,6-Trihydroxy-2-methoxy-5-oxo-5H-benzocycloheptene-8-carboxylic acid hexyl ester] the “concentration range inhibiting cellular survival” value [1] was “low micromolar range”, the “concentration range inhibiting VCAN induced NF-κB activation” value [2] was “low micromolar range” and the “VCAN-induced myeloid NF-κB activation and MPE” value [3] was “blocks versican (VCAN)-induced myeloid NF-κB activation and MPE of Kras-mutant cancer cells in vivo”. The “tumor growth in vivo” value [3] was “blocked tumor growth in vivo at clinically relevant concentrations”.

For “IL-1RA: IL-1 receptor antagonist protein, natural antagonist of IL-1α and IL-1β”, the “clinical or laboratory values” [4] is given as “no change in clinical or laboratory values”.

B1: Isunakinra: protein chimera of IL-1β and IL-1 receptor antagonists comprising P05 (SEQ ID NO: 5); binds IL1R1 (protein)
chain: APVRSLNCRIWDVNQKTFYLRNNQLVAGYLQGPNVNLEEKFSMSFVQGEESNDKIPVALGLKEKNLYLSCVLKDDKPTLQLESVDPKNYPKKKMEKRFVFNKIEINNKLEFESAQFPNWFLCTAMEADQPVSLTNMPDEGVMVTKFYMQFVSS
modifications: P05
In the case of B1, the “s.c. tumor growth (tumor volume)” value [5] is reported as “specifically inhibited s.c. growth of KrasMUT tumors”, the “NF-κB activation in KrasMUT cancer cells in vivo (chest bioluminescence)” value [6] is reported as “limited nuclear factor (NF)-κB activation in KrasMUT cancer cells in vivo” and the “malignant pleural effusions (MPE)” value [6] is reported as “limits nuclear factor (NF)-κB activation and malignant pleural effusions (MPE) from Kras-mutant cancer cells”.

— patent publication US20250188162A1, “INHIBITOR OF INTERLEUKIN-1 RECEPTOR TYPE 1 FOR USE IN THE TREATMENT OF CANCER” (Buzzard Pharmaceuticals AB, priority 2022, published 2025)
